From patent US4352803A, “Novel naphthyridine derivatives, intermediates thereof, processes for preparation thereof, and use thereof” (Dainippon Pharmaceutical Co., Ltd., priority 1978, dated 1982)
In brackets after ≈: the same amount, converted by molar mass. Structures can show the parent of a compound that is named as a salt. Where two headings read alike, the source gives them in different places.

Assays:
[1] = test system: Pseudomonas aeruginosa Tsuchijima; assay: In vitro antibacterial activity (MIC), Pseudomonas aeruginosa Tsuchijima; type: cell-based; settings: Pseudomonas aeruginosa, read-out: minimum inhibitory concentration (MIC)
Text: (§1) (MIC) (μg/ml) Method; Chemotherapy, 22(6), 1126 (1974)

[2] = test system: Corynebacterium pyogenes C-21; assay: In vitro antibacterial activity (MIC), Corynebacterium pyogenes C-21; type: cell-based; settings: Rhodococcus (subgen. Prescottella) equi
Text: as §1

Shigella flexneri 2a = assay: In vitro antibacterial activity (MIC), Shigella flexneri 2a; type: cell-based; settings: read-out: minimum inhibitory concentration (MIC)
Text: as §1

[3] = test system: Pseudomonas aeruginosa No. 12; assay: In vitro antibacterial activity (MIC), Pseudomonas aeruginosa No. 12; type: cell-based
Text: as §1

Proteus mirabilis P-2381 = assay: In vitro antibacterial activity (MIC), Proteus mirabilis P-2381; type: cell-based
Text: as §1

[4] = test system: Escherichia coli NIHJ JC-2; assay: In vitro antibacterial activity (MIC), Escherichia coli NIHJ JC-2; type: cell-based; settings: Escherichia coli, NIHJJC2, read-out: minimum inhibitory concentration (MIC)
Text: as §1

[5] = test system: Serratia marcescens IFC 3736; assay: In vitro antibacterial activity (MIC), Serratia marcescens IFC 3736; type: cell-based
Text: as §1

Proteus morganii Kono = assay: In vitro antibacterial activity (MIC), Proteus morganii Kono; type: cell-based; settings: Morganella morganii, read-out: minimum inhibitory concentration (MIC)
Text: as §1

[6] = test system: Pseudomonas aeruginosa No. 12; assay: in vivo efficacy against systemic infection in mice, Pseudomonas aeruginosa No. 12; settings: NO.12, in Mus musculus, po, 168 h
Experimental: Male mice (ddY) weighing about 20 g
(3) Pseudomonas aeruginosa No. 12;
(about 5 × 10^3 cells/mouse) of a bacterial
(§2) suspension in trypto-soy broth with 4% mucin.
(§3) Twice, about 5 minutes and 6 hours after infection.
The numerals in the table show ED50 (mg/kg). ED50 values were

[7] = test system: Salmonella typhimurium 8-9; assay: In vitro antibacterial activity (MIC), Salmonella typhimurium 8-9; type: cell-based; settings: Salmonella enterica, read-out: minimum inhibitory concentration (MIC)
Text: as §1

[8] = test system: Staphylococcus aureus 209P JC-1; assay: In vitro antibacterial activity (MIC), Staphylococcus aureus 209P JC-1; type: cell-based; settings: read-out: minimum inhibitory concentration (MIC)
Text: as §1

[9] = test system: Staphylococcus aureus No. 50774; assay: in vivo efficacy against systemic infection in mice, Staphylococcus aureus No. 50774; settings: NO.50774, in Mus musculus, po, 336 h
Experimental: Male mice (ddY) weighing about 20 g
Intravenous infection with (about
5 × 10^8 cells/mouse) of a bacterial
as §3

[10] = test system: Klebsiella pneumoniae No. 13; assay: In vitro antibacterial activity (MIC), Klebsiella pneumoniae No. 13; type: cell-based
Text: as §1

[11] = test system: Staphylococcus aureus No. 50774; assay: In vitro antibacterial activity (MIC), Staphylococcus aureus No. 50774; type: cell-based
Text: as §1

[12] = test system: Shigella flexneri 4a P-330; assay: In vitro antibacterial activity (MIC), Shigella flexneri 4a P-330; type: cell-based; settings: 4AP330, read-out: minimum inhibitory concentration (MIC)
Text: as §1

[13] = test system: Salmonella enteritidis No. 1891; assay: In vitro antibacterial activity (MIC), Salmonella enteritidis No. 1891; type: cell-based; settings: Salmonella enterica, read-out: minimum inhibitory concentration (MIC)
Text: as §1

[14] = test system: Streptococcus pyogenes 65A; assay: In vitro antibacterial activity (MIC), Streptococcus pyogenes 65A; type: cell-based; settings: read-out: minimum inhibitory concentration (MIC)
Text: as §1

Escherichia coli P-5101 [15] = assay: In vitro antibacterial activity (MIC), Escherichia coli P-5101; type: cell-based; settings: Escherichia coli, P5101, read-out: minimum inhibitory concentration (MIC)
Text: as §1

Escherichia coli P-140a = assay: In vitro antibacterial activity (MIC), Escherichia coli P-140a; type: cell-based; settings: read-out: minimum inhibitory concentration (MIC)
Text: as §1

[16] = test system: Enterobacter cloacae P-2540; assay: In vitro antibacterial activity (MIC), Enterobacter cloacae P-2540; type: cell-based
Text: as §1

Escherichia coli P-5101 [17] = assay: in vivo efficacy against systemic infection in mice, Escherichia coli P-5101; settings: P5101, in Mus musculus, po, 168 h
Experimental: Male mice (ddY) weighing about 20 g
Intraperitoneal infection with (about
9 × 10^6 cells/mouse) of a bacterial
as §2, §3

[18] = test system: Streptococcus faecalis P-2473; assay: In vitro antibacterial activity (MIC), Streptococcus faecalis P-2473; type: cell-based; settings: Enterococcus faecalis
Text: as §1

[19] = test system: Gram-positive and Gram-negative bacteria; assay: in vivo therapeutic efficacy against systemic infections in mice (overall); set-up: species or system mice (ddY)
in vivo = settings: mouse, in vivo, po
Experimental: The number of dead mice was counted after 7 days, and the value of median lethal dose (LD50, mg/kg) was calculated in accordance with the Behrens-Kaerber method.

[20] = C21, Corynebacterium pyogenes C-21, read-out: minimum inhibitory concentration (MIC)
[21] = IFC3736, Serratia marcescens IFC 3736, read-out: minimum inhibitory concentration (MIC)
[22] = Staphylococcus aureus 209P JC-1
[23] = Klebsiella pneumoniae No. 13, read-out: minimum inhibitory concentration (MIC)
[24] = Staphylococcus aureus No. 50774, read-out: minimum inhibitory concentration (MIC)
[25] = Salmonella enteritidis No. 1891
[26] = P2540, Enterobacter cloacae P-2540, read-out: minimum inhibitory concentration (MIC)
[27] = P2473, Streptococcus faecalis P-2473, read-out: minimum inhibitory concentration (MIC)
[28] = Pseudomonas aeruginosa, NO.12, read-out: minimum inhibitory concentration (MIC)
[29] = Proteus mirabilis, P2381, read-out: minimum inhibitory concentration (MIC)

| SMILES | MIC [1] | MIC [2, 20] | MIC (Shigella flexneri 2a) | MIC [4] | MIC [5, 21] | MIC (Proteus morganii Kono; Proteus morganii Kono) | ED50 [6] | MIC ([7]; Salmonella typhimurium 8-9) | MIC [8, 22] | ED50 [9] | MIC [10, 23] | MIC [11, 24] | MIC [12] | MIC [13, 25] | MIC ([14]; Streptococcus pyogenes 65A) | MIC (Escherichia coli P-5101 [15]) | MIC (Escherichia coli P-140a; P140A, Escherichia coli P-140a) | MIC [16, 26] | ED50 (Escherichia coli P-5101 [17]) | MIC [18, 27] | other results |
| --- | --- | --- | --- | --- | --- | --- | --- | --- | --- | --- | --- | --- | --- | --- | --- | --- | --- | --- | --- | --- | --- |
| CC1(C)S[C@@H]2[C@H](NC(=O)C(C(=O)Oc3ccc4c(c3)CCC4)c3ccccc3)C(=O)N2[C@H]1C(=O)O (stereo partly drawn) [G, α-(5-Indanyloxycarbonyl)benzylpenicillin sodium salt] | 6.25 µg/mL | 3.13 µg/mL | 12.5 µg/mL | 6.25 µg/mL | 3.13 µg/mL | 0.78 µg/mL | 202 mg/kg | 0.78 µg/mL | 0.39 µg/mL | 10 to 40 mg/kg | > 200 µg/mL | 0.78 µg/mL | 6.25 µg/mL | 0.78 µg/mL | 0.2 µg/mL | 6.25 µg/mL | 50 µg/mL | 3.13 µg/mL | 100 mg/kg | 50 µg/mL | MIC ([3]; Pseudomonas aeruginosa No. 12, read-out: minimum inhibitory concentration (MIC)): 50 µg/mL; MIC (Proteus mirabilis P-2381; P2381, Proteus mirabilis P-2381, read-out: minimum inhibitory concentration (MIC)): 0.78 µg/mL |
| CC1(C)S[C@@H]2[C@H](NC(=O)[C@H](N)c3ccccc3)C(=O)N2[C@H]1C(=O)O [H, D-α-Aminobenzylpenicillin] | > 200 µg/mL | 1.56 µg/mL (≈ 4.46 µM) | 3.13 µg/mL (≈ 8.96 µM) | 6.25 µg/mL (≈ 17.9 µM) | 25 µg/mL (≈ 71.5 µM) | 100 µg/mL (≈ 286 µM) | > 400 mg/kg | 0.39 µg/mL (≈ 1.12 µM) | 0.05 µg/mL (≈ 0.143 µM) | 2.2 mg/kg | 100 µg/mL (≈ 286 µM) | 0.1 µg/mL (≈ 0.286 µM) | 6.25 µg/mL (≈ 17.9 µM) | 0.2 µg/mL (≈ 0.572 µM) | 0.025 µg/mL (≈ 0.0715 µM) | 6.25 µg/mL (≈ 17.9 µM) | 200 µg/mL (≈ 572 µM) | > 200 µg/mL | 43.5 mg/kg | 1.56 µg/mL (≈ 4.46 µM) | MIC [3, 28]: > 200 µg/mL; MIC (Proteus mirabilis P-2381; [29]): 3.13 µg/mL (≈ 8.96 µM); therapeutic effects in vivo against Gram-negative bacteria, relative to compounds 1, 1' and 2 ([19]; Gram-negative, particularly Pseudomonas aeruginosa): clearly inferior; LD50 at 168 h (in vivo): > 5000 mg/kg |
| CC1=C(C(=O)O)N2C(=O)[C@@H](NC(=O)[C@H](N)c3ccccc3)[C@H]2SC1 [J, 7-(D-α-Aminophenylacetamido)desacetoxycephalosporanic acid] | > 200 µg/mL | – | 12.5 µg/mL (≈ 36 µM) | 12.5 µg/mL (≈ 36 µM) | – | – | > 400 mg/kg | – | – | 12.1 mg/kg | – | – | 200 µg/mL (≈ 576 µM) | – | – | 12.5 µg/mL (≈ 36 µM) | – | – | 22.6 mg/kg | – | MIC ([2]; C21, read-out: minimum inhibitory concentration (MIC)): 1.56 µg/mL (≈ 4.49 µM); MIC [3, 28]: > 200 µg/mL; MIC (Proteus mirabilis P-2381; [29]): 12.5 µg/mL (≈ 36 µM); MIC ([5]; Serratia marcescens, IFC3736, read-out: minimum inhibitory concentration (MIC)): > 200 µg/mL; MIC (Proteus morganii Kono): > 200 µg/mL; MIC ([7]; TYPHIMURIUM): 6.25 µg/mL (≈ 18 µM); MIC ([8]; Staphylococcus aureus, 209P): 1.56 µg/mL (≈ 4.49 µM); MIC ([10]; Klebsiella pneumoniae, NO.13, read-out: minimum inhibitory concentration (MIC)): 6.25 µg/mL (≈ 18 µM); MIC ([11]; Staphylococcus aureus, NO.50774, read-out: minimum inhibitory concentration (MIC)): 1.56 µg/mL (≈ 4.49 µM); MIC ([13]; ENTERITIDIS): 3.13 µg/mL (≈ 9.01 µM); MIC ([14]; Streptococcus pyogenes, 65A): 0.78 µg/mL (≈ 2.25 µM); MIC (Escherichia coli P-140a; Escherichia coli): > 200 µg/mL; MIC ([16]; Enterobacter cloacae, P2540, read-out: minimum inhibitory concentration (MIC)): > 200 µg/mL; MIC ([18]; P2473, read-out: minimum inhibitory concentration (MIC)): 200 µg/mL (≈ 576 µM) |
| CCOC(=O)c1cn(CC)c2nc(N3CCNCC3)c(F)cc2c1=O [ethyl ester of compound 1, Ethyl 1-ethyl-6-fluoro-1,4-dihydro-4-oxo-7-(1-piperazinyl)-1,8-naphthyridine-3-carboxylate] | – | – | – | – | – | – | 21 mg/kg | – | – | ~20 mg/kg | – | – | – | – | – | – | – | – | – | – | therapeutic effect / in vivo antibacterial activity (in words) ([19]; systemic infections with Gram-positive and Gram-negative bacteria): superior antibacterial activity in vivo |
